Assay results reported in patent US8614168B2, “Use of azoles for increasing the abiotic stress resistance of plants or plant parts” (Monheim, priority 2008, dated 2013).

Assays:
[1] = test system: BRSNS: oilseed rape (Brassica napus); assay: Dry stress test on potted plants, spray application, oilseed rape; type: in vivo; conditions: individual substance
Protocol: (§1) Seeds of monocotyledonous and dicotyledonous crop plants are placed in sandy loam in wood-fiber pots, covered with soil and cultivated in a greenhouse under good growth conditions. The test plants are treated in the early leaf stage (BBCH10-BBCH13, BBCH-Monografie der Biologische Bundesanstalt für Land and Forstwirtschaft, 2nd edition, 2001), i.e. 2-3 weeks after sowing according to the species. To ensure uniform water supply before commencement of stress, the potted plants were supplied with the maximum amount of water immediately beforehand by dam irrigation and transferred in plastic inserts in order to prevent subsequent, excessively rapid drying. The inventive compounds, formulated in the form of wettable powders (WP), are then sprayed onto the green parts of the plants as an aqueous suspension at an equivalent water application rate of 600 l/ha with addition of 0.2% wetting agent (agrotin). Substance application is followed immediately by stress treatment of the plants (cold or dry stress). Dry stress is induced by slow drying under the following conditions: • “day”: 14 hours with illumination at 26° C. • “night”: 10 hours without illumination at 18° C. The cold stress phase is ended after exactly 14 days. The duration of the dry stress phase is guided mainly by the state of the untreated, stressed control plants and thus varies from crop to crop. It is ended (by re-irrigating) as soon as irreversible damage is observed on the untreated, stressed control plants. In the case of dicotyledonous crops, for example oilseed rape and soya, the duration of the dry stress phase is between 4 and 6 days, in the case of monocotyledonous crops, for example wheat, barley or corn, between 6 and 10 days. The end of the stress phase is followed by a 7-day recovery phase, during which the plants are once again kept under good growth conditions in a greenhouse. In order to rule out any influence of the effects observed by any fungicidal action of the test compounds, it is additionally ensured that the tests proceed without fungal infection and without infection pressure. After the recovery phase has ended, the intensities of damage are rated visually compared to untreated, unstressed controls of the same age (in the case of dry stress) or the same growth stage (in the case of cold stress). The intensity of damage is first assessed as a percentage (100%=plants have died, 0%=like control plants). These values are then used to calculate the efficacy of the test compounds (=percentage reduction in the intensity of damage as a result of substance application) by the following formula: [formula] EF: efficacy (%) DVus: damage value of the untreated, stressed control DVts: damage value of the plants treated with test compound The table below lists mean values in each case from three results of the same test.

[2] = test system: HORVS barley (Hordeum vulgare); assay: Dry stress test on potted plants, spray application, barley; type: in vivo; conditions: 100 g/ha, individual substance
Protocol: Seeds of monocotyledonous and dicotyledonous crop plants are placed in sandy loam in wood-fiber pots, covered with soil and cultivated in a greenhouse under good growth conditions. The test plants are treated in the early leaf stage (BBCH10-BBCH13, BBCH-Monografie der Biologische Bundesanstalt für Land and Forstwirtschaft, 2nd edition, 2001), i.e. 2-3 weeks after sowing according to the species. To ensure uniform water supply before commencement of stress, the potted plants were supplied with the maximum amount of water immediately beforehand by dam irrigation and transferred in plastic inserts in order to prevent subsequent, excessively rapid drying. The inventive compounds, formulated in the form of wettable powders (WP), are then sprayed onto the green parts of the plants as an aqueous suspension at an equivalent water application rate of 600 l/ha with addition of 0.2% wetting agent (agrotin). Substance application is followed immediately by stress treatment of the plants (cold or dry stress). Dry stress is induced by slow drying under the following conditions: • “day”: 14 hours with illumination at 26° C. • “night”: 10 hours without illumination at 18° C. The cold stress phase is ended after exactly 14 days. […] The intensity of damage is first assessed as a percentage (100%=plants have died, 0%=like control plants). […]

ZEAMX: corn (Zea mais) = assay: Dry stress test on potted plants, spray application, corn; type: in vivo; conditions: individual substance
Protocol: as §1

[3] = test system: crop plants, for example oilseed rape; assay: Stunting: mean plant height after azole application; type: in vivo; conditions: dosage 250 g/ha, comparative 11.7 cm
From the text: In the case of application of the inventive azoles, this stunting occurs to a lower or non-undesirable degree: […]

ABA 8′-hydroxylase = conditions: studies to date (Kitahata et al., 2005; Saito et al., 2006); cited from earlier work

| SMILES | efficacy (percentage reduction in the intensity of damage) ([1]; 100 g/ha) [%] | efficacy (percentage reduction in the intensity of damage) [2] [%] | efficacy (percentage reduction in the intensity of damage) (ZEAMX: corn (Zea mais); 100 g/ha) [%] | efficacy (percentage reduction in the intensity of damage) ([1]; 250 g/ha) [%] | efficacy (percentage reduction in the intensity of damage) (ZEAMX: corn (Zea mais); 250 g/ha) [%] | Mean plant height (cm) [3] [cm] | inhibiting action on abscisic acid catabolism or ABA 8′-hydroxylase (ABA 8′-hydroxylase) |
| --- | --- | --- | --- | --- | --- | --- | --- |
| Fc1ccc([C@]2(Cn3cncn3)O[C@H]2c2ccccc2Cl)cc1 (racemic) [epoxiconazole] | 35 | 17 | 11 |  |  |  |  |
| CC(C1CC1)C(O)(Cn1cncn1)c1ccc(Cl)cc1 (stereo not shown) [cyproconazole] |  |  | 40 | 42 | 37 |  |  |
| CC1(C)CCC(Cc2ccc(Cl)cc2)C1(O)Cn1cncn1 (stereo not shown) [metconazole] | 50 |  |  |  |  |  |  |
| OC(Cc1ccccc1Cl)(Cn1nc[nH]c1=S)C1(Cl)CC1 (stereo not shown) [prothioconazole] | 12 | 11 | 12 |  |  | 10.2 |  |
| CC(C)(C)C(O)(CCc1ccc(Cl)cc1)Cn1cncn1 (stereo not shown) [tebuconazole] | 27 |  |  | 42 | 30 | 10.2 | only slight inhibiting action, if any |
